Where two headings read alike, the source gives them in different places. Marks after values point to notes of the source that are not given here. Where a SMILES comes first, the peptide text is derived from it.
Experiments:
Type in all cases: binding
[1] = system: rabbit anti-GM1 antibodies (AbGM1); conditions: for IC50: AbGM1-1 lot # 431A; for Inhibition percent at IC50AbGM1-1: GM1/AbGM1-1 / Inhibition percent at IC50 AbGM1-1: AbGM1-3 / Inhibition percent at IC50 AbGM1-1: AbeGM1-4 / Inhibition percent at IC50 AbGM1-1: AbGM1-5 / Inhibition percent at IC50 AbGM1-1: AbGM1-1 / Inhibition percent at IC50 AbGM1-1: AbGM1-2: peptide at its IC50 AbGM1-1; for Inhibition percent at IC50 AbGM1-1: AbGM1-3: antibody lot # 101J; for Inhibition percent at IC50 AbGM1-1: AbeGM1-4: antibody lot # 104H; for Inhibition percent at IC50 AbGM1-1: AbGM1-1: antibody lot # 431A, means of 4 values
[2] = system: AbGM4 (GM4/AbGM4); conditions: lot # GMR6; for Inhibition percent at IC50AbGM1-1: GM4/AbGM4: peptide at its IC50 AbGM1-1
[3] = biological target: cholera toxin B subunit (CTB); ligand GD1b (Vibrio cholerae serotype O1, UniProt P01556)
[4] = system: AbSGPG (SGPG/AbSGPG); conditions: lot # D710-5; for Inhibition percent at IC50AbGM1-1: SGPG/AbSGPG: peptide at its IC50 AbGM1-1
[5] = biological target: cholera toxin B subunit (CTB); ligand LOSGM1 (Vibrio cholerae serotype O1, UniProt P01556)
[6] = system: AbGM2 (GM2/AbGM2); conditions: lot # D710-2; for Inhibition percent at IC50AbGM1-1: GM2/AbGM2: peptide at its IC50 AbGM1-1
[7] = system: AbF-GM1 (F-GM1/AbF-GM1); conditions: lot # G351; for Inhibition percent at IC50AbGM1-1: F-GM1/AbF-GM1: peptide at its IC50 AbGM1-1
[8] = system: AbGD1a (GD1a/AbGD1a); conditions: lot # 109H; for Inhibition percent at IC50AbGM1-1: GD1a/AbGD1a: peptide at its IC50 AbGM1-1
[9] = biological target: cholera toxin B subunit (CTB); ligand Lipid AP (Vibrio cholerae serotype O1, UniProt P01556)
[10] = biological target: cholera toxin B subunit (CTB); ligand fucosyl-GM1 (F-GM1) (Vibrio cholerae serotype O1, UniProt P01556)
[11] = system: AbGD1b (GD1b/AbGD1b); conditions: lot # D710-6; for Inhibition percent at IC50AbGM1-1: GD1b/AbGD1b: peptide at its IC50 AbGM1-1
[12] = biological target: cholera toxin B subunit (CTB); ligand GM1 (Vibrio cholerae serotype O1, UniProt P01556)
[13] = system: AbGD3 (GD3/AbGD3); conditions: peptide at its IC50 AbGM1-1; lot # R24
[14] = antibody lot # 105T, dilution 1:500
[15] = antibody lot # 431B, dilution 1:500
[16] = treatment with 500 pmol/mL of PGM1-2

Sequence of cholera toxin B subunit (CTB); ligand GM1 (P01556 22-124 limits assumed): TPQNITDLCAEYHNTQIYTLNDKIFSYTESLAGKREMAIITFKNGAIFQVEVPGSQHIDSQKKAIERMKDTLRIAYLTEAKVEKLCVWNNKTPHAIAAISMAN
Sequence of cholera toxin B subunit (CTB); ligand LOSGM1 (P01556 22-124 limits assumed): as above
Sequence of cholera toxin B subunit (CTB); ligand GD1b (P01556 22-124 limits assumed): as above
Sequence of cholera toxin B subunit (CTB); ligand Lipid AP (P01556 22-124 limits assumed): as above
Sequence of cholera toxin B subunit (CTB); ligand fucosyl-GM1 (F-GM1) (P01556 22-124 limits assumed): as above

Molecule	IC50 ([1]; Table 4, dilution 1:500) [nM]	IC50 ([1]; Table 5) [nM]	Inhibition percent at IC50AbGM1-1: GM1/AbGM1-1 ([1]; Table 5, lot # 431A) [%]	Inhibition percent at IC50 AbGM1-1: AbGM1-3 ([1]; dilution 1:500)	Inhibition percent at IC50 AbGM1-1: AbeGM1-4 ([1]; dilution 1:500)	Inhibition percent at IC50 AbGM1-1: AbGM1-5 [1, 14] [%]	Inhibition percent at IC50 AbGM1-1: AbGM1-1 ([1]; dilution 1:500)	Inhibition percent at IC50 AbGM1-1: AbGM1-2 [1, 15] [%]	Inhibition percent at IC50AbGM1-1: GM4/AbGM4 [2] [%]	Inhibition percent at IC50 GM1: GD1b [3] [%]	Inhibition percent at IC50AbGM1-1: SGPG/AbSGPG [4] [%]	Inhibition percent at IC50 GM1: LOSGM1 [5] [%]	Inhibition percent at IC50AbGM1-1: GM2/AbGM2 [6] [%]	Inhibition percent at IC50AbGM1-1: F-GM1/AbF-GM1 [7] [%]	Inhibition percent at IC50AbGM1-1: GD1a/AbGD1a [8] [%]	Inhibition percent at IC50 GM1: Lipid AP [9] [%]	Inhibition percent at IC50 GM1: F-GM1 [10] [%]	Inhibition percent at IC50AbGM1-1: GD1b/AbGD1b [11] [%]	IC50 GM1 [12] [nM]	Inhibition percent at IC50 GM1: GM1 [12] [%]	also measured
CC[C@H](C)[C@H](NC(=O)[C@@H](N)CCC(N)=O)C(=O)N[C@@H](CC(N)=O)C(=O)N[C@H](C(=O)N[C@@H](C)C(=O)N[C@@H](CCCCN)C(=O)N[C@@H](Cc1c[nH]c2ccccc12)C(=O)N[C@@H](Cc1c[nH]c2ccccc12)C(=O)N[C@@H](CCCCN)C(=O)N[C@H](C(=O)N[C@@H](Cc1c[nH]cn1)C(=O)N[C@@H](Cc1ccccc1)C(=O)O)[C@@H](C)O)[C@@H](C)O [PGM1-5, QINTAKWWKTHF] (H-QINTAKWWKTHF-OH)	481	481	50	12.1%	0%	32.9	50%	0	0	39.8	0	50.0	6.5	0	0	0	52.1	0	34.4	50	Inhibition percent at IC50AbGM1-1: GD3/AbGD3 [13]: 0%
CC(C)C[C@H](NC(=O)[C@H](CCCCN)NC(=O)[C@@H](NC(=O)[C@H](Cc1ccccc1)NC(=O)[C@H](Cc1c[nH]c2ccccc12)NC(=O)[C@H](C)NC(=O)[C@@H]1CCCN1C(=O)[C@@H](N)Cc1ccccc1)[C@@H](C)O)C(=O)N[C@@H](Cc1ccc(O)cc1)C(=O)N1CCC[C@H]1C(=O)N[C@@H](CCCNC(=N)N)C(=O)N[C@H](C(=O)O)[C@@H](C)O [PGM1-4, FPAWFTKLYPRT] (H-FPAWFTKLYPRT-OH)	175	175	50	12.6%	33.9%	0	50%	70.1	0	18.9	0	51.1	0	25.7	0	0	62.1	12.1	77.4	50	Inhibition percent at IC50AbGM1-1: GD3/AbGD3 [13]: 0%
CSCC[C@H](NC(=O)[C@H](CO)NC(=O)[C@@H]1CCCN1C(=O)[C@H](Cc1ccccc1)NC(=O)[C@H](Cc1c[nH]c2ccccc12)NC(=O)[C@H](CCCCN)NC(=O)[C@H](Cc1c[nH]cn1)NC(=O)[C@H](Cc1ccccc1)NC(=O)[C@@H]1CCCN1C(=O)[C@H](CO)NC(=O)[C@@H](N)Cc1ccc(O)cc1)C(=O)N[C@@H](Cc1c[nH]cn1)C(=O)O [PGM1-2, YSPFHKWFPSMH] (H-YSPFHKWFPSMH-OH; N-terminus and C-terminus assumed)				65.7^a percent	15.1^a percent		0^a percent			21.9		47.9				0	52.1		46.1	50	Inhibition percent: GM1/AbGM1-1 ([1]; Table 5, treatment with 500 pmol/mL of PGM1-2, lot # 431A): 0^b percent; Inhibition percent: AbGM1-5 ([1]; treatment with 500 pmol/mL of PGM1-2, antibody lot # 105T, dilution 1:500): 0^b percent; Inhibition percent: AbGM1-2 ([1]; treatment with 500 pmol/mL of PGM1-2, antibody lot # 431B, dilution 1:500): 32.1^b percent; Inhibition percent: GM4/AbGM4 [2, 16]: 0^b percent; Inhibition percent: SGPG/AbSGPG [4, 16]: 0^b percent; Inhibition percent: GM2/AbGM2 [6, 16]: 0^b percent; Inhibition percent: F-GM1/AbF-GM1 [7, 16]: 0^b percent; Inhibition percent: GD1a/AbGD1a [8, 16]: 0^b percent; Inhibition percent: GD1b/AbGD1b [11, 16]: 23.6^b percent
DASKALRSSGMP [PGM1-6]	293	293	50	0%	55.1%	18.7	50%	45.1	0		0		0	23.4	0			8.9		0	Inhibition percent: GD1b [3]: 0^d percent; Inhibition percent: LOSGM1 [5]: 0^d percent; Inhibition percent: Lipid AP [9]: 0^d percent; Inhibition percent: F-GM1 [10]: 0^d percent; Inhibition percent at IC50AbGM1-1: GD3/AbGD3 [13]: 0%
CC[C@H](C)[C@H](N)C(=O)N1CCC[C@H]1C(=O)N[C@@H](CCC(N)=O)C(=O)N[C@H](C(=O)N[C@@H](Cc1c[nH]c2ccccc12)C(=O)N[C@@H](CCCNC(=N)N)C(=O)N[C@@H](CC(=O)O)C(=O)N[C@@H](Cc1c[nH]c2ccccc12)C(=O)N[C@@H](Cc1ccccc1)C(=O)N[C@@H](CCCCN)C(=O)N[C@@H](CC(C)C)C(=O)N1CCC[C@H]1C(=O)O)C(C)C [PGM1-3, IPQVWRDWFKLP] (H-IPQVWRDWFKLP-OH)	75.6	75.6	50	42.5%	30.3%	59.1	50%	62.1	0	37.9	0	52.1	0	0	0	0	43.9	0	9.6	50	Inhibition percent at IC50AbGM1-1: GD3/AbGD3 [13]: 0%
